Read-outs that look alike come from different tables or passages of the source.
Tests used:
[1] = biological target: T1, Progesterone Receptor (Homo sapiens, UniProt P06401); experiment: Assay for Progesterone Receptor Agonist Activity (CV-1 cells, PRb-BacMam, MMTV-BacMam); assay type: cell-based; conditions: at least once in this assay, read-out: progesterone receptor agonist pEC50 (converted)
T1 construct: expressed in transfected cells; host or cells: CV-1 cells transduced with PRb-BacMam and MMTV-BacMam
T1 sequence (P06401 1-933): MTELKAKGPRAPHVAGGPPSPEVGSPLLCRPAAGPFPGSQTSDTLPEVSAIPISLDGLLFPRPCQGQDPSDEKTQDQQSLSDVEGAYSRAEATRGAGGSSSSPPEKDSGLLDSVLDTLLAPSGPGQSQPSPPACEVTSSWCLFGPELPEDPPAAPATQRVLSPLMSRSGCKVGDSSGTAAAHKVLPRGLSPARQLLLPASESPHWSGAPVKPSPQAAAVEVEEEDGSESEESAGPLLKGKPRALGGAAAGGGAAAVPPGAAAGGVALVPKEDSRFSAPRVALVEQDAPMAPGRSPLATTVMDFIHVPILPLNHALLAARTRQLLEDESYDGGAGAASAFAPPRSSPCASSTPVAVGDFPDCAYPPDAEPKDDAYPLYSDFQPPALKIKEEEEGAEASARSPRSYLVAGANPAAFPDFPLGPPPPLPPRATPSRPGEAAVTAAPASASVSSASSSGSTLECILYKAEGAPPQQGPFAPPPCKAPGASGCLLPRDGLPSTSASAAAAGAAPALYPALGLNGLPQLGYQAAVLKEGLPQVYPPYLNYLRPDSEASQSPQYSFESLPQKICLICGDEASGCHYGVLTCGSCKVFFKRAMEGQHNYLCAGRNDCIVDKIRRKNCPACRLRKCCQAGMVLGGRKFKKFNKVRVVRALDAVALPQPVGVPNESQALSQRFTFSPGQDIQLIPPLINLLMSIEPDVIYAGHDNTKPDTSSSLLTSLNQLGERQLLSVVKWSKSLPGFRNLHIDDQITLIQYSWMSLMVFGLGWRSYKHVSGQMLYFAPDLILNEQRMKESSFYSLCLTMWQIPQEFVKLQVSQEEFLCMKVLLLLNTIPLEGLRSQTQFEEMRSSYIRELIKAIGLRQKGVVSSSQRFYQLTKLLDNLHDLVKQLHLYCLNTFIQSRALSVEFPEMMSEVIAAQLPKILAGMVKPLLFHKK
Procedure: A T225 flask of CV-1 cells at a density of 80% confluency was washed with PBS, detached from the flask using 0.25% trypsin and counted using a Sysmex KX-21N. Cells were diluted in DMEM containing 10% Hyclone, 2 mM […] and 1% Pen/Strep at 140 cells/μl and transduced with 10% PRb-BacMam and 10% MMTV-BacMam. […] of suspension cells were dispensed to each well of white Nunc 384-well plates, containing compounds at the required concentration. After 24 hr 10 μl of Steadylite were added to each well of the plates. Plates were incubated in the dark for 10 min before reading them on a Viewlux reader. Dose response curves were constructed from which pEC50 values were estimated.

[2] = biological target: T2, GR (Homo sapiens, UniProt P04150); experiment: GR Agonist Assay - MMTV Assay (A549 MMTV cells, renilla luciferase reporter); assay type: cell-based; conditions: 6 h, agonists, read-out: average maximum asymptote in the MMTV agonist assay
T2 construct: endogenous in cells; host or cells: A549 (human lung carcinoma, ECACC No. 86012804), stably transfected with reporter plasmids only
T2 sequence (P04150 1-777): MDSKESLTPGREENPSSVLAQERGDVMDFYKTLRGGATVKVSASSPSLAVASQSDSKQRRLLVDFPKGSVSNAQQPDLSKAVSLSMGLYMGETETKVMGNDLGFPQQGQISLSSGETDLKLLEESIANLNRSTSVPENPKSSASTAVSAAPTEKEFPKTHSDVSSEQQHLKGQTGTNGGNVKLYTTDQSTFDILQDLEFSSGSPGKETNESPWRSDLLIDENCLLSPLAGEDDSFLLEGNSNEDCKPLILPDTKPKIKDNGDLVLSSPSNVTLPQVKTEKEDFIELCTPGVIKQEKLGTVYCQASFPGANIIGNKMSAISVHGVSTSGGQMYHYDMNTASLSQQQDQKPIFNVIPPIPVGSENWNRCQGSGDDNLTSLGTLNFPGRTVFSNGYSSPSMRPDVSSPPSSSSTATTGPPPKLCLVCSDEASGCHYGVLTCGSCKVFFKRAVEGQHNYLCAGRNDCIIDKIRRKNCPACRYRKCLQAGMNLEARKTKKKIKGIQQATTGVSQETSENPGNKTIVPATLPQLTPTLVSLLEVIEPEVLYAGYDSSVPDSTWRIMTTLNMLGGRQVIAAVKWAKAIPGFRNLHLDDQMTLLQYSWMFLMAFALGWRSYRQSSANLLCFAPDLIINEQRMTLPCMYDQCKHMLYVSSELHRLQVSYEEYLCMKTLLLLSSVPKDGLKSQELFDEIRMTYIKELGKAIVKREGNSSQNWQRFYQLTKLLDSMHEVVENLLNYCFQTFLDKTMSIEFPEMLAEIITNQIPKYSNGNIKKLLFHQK
Procedure: (§1) Stimulation of the cell line with GR agonists results in intracellular signal transduction and ultimately translocation of GR into the nucleus. This activates the inserted DNA sequence resulting in transcription of the integrated luciferase gene, which is quantified using a light emission. The stably transfected cell line was grown as a monolayer in DMEM supplemented with FCS-HI (10%), Non-essential amino acids (1%), L-Glutamine (2 mM), Pen/Strep (1%) and Geneticin (50 mg/ml).
A 90% confluent T175 flask of A549 MMTV cells was harvested by centrifugation for 5 min at 200 g, resuspended in assay buffer (DMEM supplemented with 10% FCS 2×HI, 2 mM Glutamax, Non essential amino acids and 25 mM HEPES) and diluted to 0.1×10^6/ml. 70 μl of cell solution was dispensed to each well of white Nunc 384-well plates, containing compound at the required concentration. […] The plates were covered to protect the reagents from light, and then incubated at room temperature for approximately 15 mins before reading them on a Viewlux.

[3] = biological target: T2, GR; experiment: GR Functional Assay - NFκB Assay (A549 SPAP cells, TNFα stimulated); assay type: cell-based; conditions: for Emax: agonists, read-out: average maximum asymptote in the NFkB assay
Procedure: as §1, with “TNFα” for “GR agonists”, “NFκB” for “GR”, “SPAP” for “luciferase”, “calorimetric assay. […]” for “light emission.”
A 70% confluent T225 flask of A549 SPAP cells was harvested by centrifugation for 5 mins at 200 g, resuspended in assay buffer (DMEM supplemented with 10% FCS 2×HI, 2 mM L-Glutamine, 1% Pen/Strep and Non essential amino acids) and diluted to 0.16×10^6/ml. 60 μl of cell solution was dispensed to each well of clear Nunc 384-well plates, containing compound at the required concentration. […] Plates were equilibrated to room temperature for 1 hr prior to the addition of 25 μl of pNPP buffer (1M Diethanolamine pH 9.8, 0.5 mM MgCl2, 0.28M NaCl, 2 mg/ml pNPP) to each well of assay plates.

[4] = biological target: T3, glucocorticoid receptor (Homo sapiens, UniProt P04150); experiment: Glucocorticoid Receptor Binding Assay (fluorescence polarisation, displacement of Alexa 555 labelled dexamethasone derivative); conditions: at least once in this assay; read-out: glucocorticoid binding pIC50 (converted)
T3 construct: a partially purified full length glucocorticoid receptor
T3 sequence (P04150 1-777): T2 sequence (P04150 1-777)
Procedure: Compounds were solvated and diluted in DMSO, and transferred directly into assay plates. Fluorescent dexamethasone and a partially purified full length glucocorticoid receptor were added to the plates, together with buffer components to stabilise the GR protein and incubated at room temperature for 2 hr in the dark. Binding of each compound was assessed by analysing the displacement of fluorescent ligand by measuring the decrease in fluorescence polarisation signal from the mixture.

[5] = at least once in the NFkB assay, A549 SPAP cells, read-out: pIC50 in the NFkB assay (converted)
[6] = at least once, examples listed as agonists in NFkB and MMTV assays, read-out: potency pIC50 in the NFKB assay (converted)

SMILES | EC50 [1] [µM] | Emax [2] [%] | Emax ([3]; A549 SPAP cells) [%] | IC50 [3, 5] [µM] | IC50 [3, 6] [µM] | IC50 [4] [µM]
Nc1c(C(=O)NCC(O)(CN(CCF)C(=O)c2ccccc2Cl)C(F)(F)F)cnn1-c1ccc(F)cc1 (racemic) [Example 15 (racemic), 5-amino-N-(2-{[[(2-chlorophenyl)car-bonyl](2-fluoroethyl)amino]methyl}-3,3,3-trifluoro-2-hydroxypropyl)-1-(4-fluorophenyl)-1H-pyrazole-4-carboxamide] | > 1 | ≥ 40 | ≥ 40 | < 1 | < 0.316 | < 1
CCN(CC(O)(CNC(=O)c1cnn(-c2ccc(F)cc2)c1N)C(F)(F)F)C(=O)c1ccccc1 (racemic) [Example 14 (racemic), 5-amino-N-(2-{[ethyl(phenylcar-bonyl)amino]methyl}-3,3,3-trifluoro-2-hydroxypropyl)-1-(4-fluorophenyl)-1H-pyrazole-4-carboxamide] | > 1 | ≥ 40 | ≥ 40 | < 1 | < 0.316 | < 1
CN(CC(O)(CNC(=O)c1cnn(-c2ccc(F)cc2)c1N)C(F)(F)F)C(=O)c1ccccc1Cl (single isomer, unassigned) [Example 7 Enantiomer 1, 5-amino-N-(2-{[[(2-chlorophenyl)car-bonyl](methyl)amino]methyl}-3,3,3-trifluoro-2-hydroxypropyl)-1-(4-fluorophenyl)-1H-pyrazole-4-carboxamide] | > 1 | ≥ 40 | ≥ 40 | < 1 | < 0.316 | < 1
CCN(CC(O)(CNC(=O)c1cnn(-c2ccc(F)cc2)c1N)C(F)(F)F)C(=O)c1ccccc1Cl (single isomer, unassigned) [Example 16 Enantiomer 1, 5-amino-N-(2-{[[(2-chlorophenyl)car-bonyl](ethyl)amino]methyl}-3,3,3-trifluoro-2-hydroxypropyl)-1-(4-fluorophenyl)-1H-pyrazole-4-carboxamide] | > 1 | – | – | – | – | –
CCN(CC(O)(CNC(=O)c1cnn(-c2ccc(F)cc2)c1N)C(F)(F)F)C(=O)c1cccc2cccnc12 (racemic) [Example 8 (racemic), N-{2-[({[5-amino-1-(4-fluorophenyl)-1H-pyrazol-4-yl]carbonyl}amino)methyl]-3,3,3-trifluoro-2-hydroxypropyl}-N-ethyl-8-quinolinecarboxamide] | > 1 | ≥ 40 | ≥ 40 | < 1 | < 0.316 | –
CCN(CC(O)(CNC(=O)c1cnn(-c2ccc(F)cc2)c1N)C(F)(F)F)C(=O)c1ccccc1F (single isomer, unassigned) [Example 4 Enantiomer 1, 5-Amino-N-[2-({ethyl[(2-fluorophenyl)carbonyl]amino}methyl)-3,3,3-trifluoro-2-hydroxypropyl]-1-(4-fluorophenyl)-1H-pyrazole-4-carboxamide] | > 1 | – | – | < 1 | – | –
Nc1c(C(=O)NCC(O)(CN(CCF)C(=O)c2ccccc2)C(F)(F)F)cnn1-c1ccc(F)cc1 (single isomer, unassigned) [Example 1 Enantiomer 1, 5-Amino-1-(4-fluorophenyl)-N-(3,3,3-trifluoro-2-{[(2-fluoroethyl)(phenylcarbonyl)amino]methyl}-2-hydroxypropyl)-1H-pyrazole-4-carboxamide] | > 1 | – | – | < 1 | – | < 1
CCN(CC(O)(CNC(=O)c1cnn(-c2ccc(F)cc2)c1N)C(F)(F)F)C(=O)c1ccccc1Cl (racemic) [Example 16 (racemic), 5-amino-N-(2-{[[(2-chlorophenyl)car-bonyl](ethyl)amino]methyl}-3,3,3-trifluoro-2-hydroxypropyl)-1-(4-fluorophenyl)-1H-pyrazole-4-carboxamide] | > 1 | – | – | – | – | –
CCN(CC(O)(CNC(=O)c1cnn(-c2ccc(F)cc2)c1N)C(F)(F)F)C(=O)c1ncccc1Cl (racemic) [Example 3 (racemic), N-[2-[({[5-Amino-1-(4-fluorophenyl)-1H-pyrazol-4-yl]carbonyl]amino)methyl]-3,3,3-trifluoro-2-hydroxypropyl}-3-chloro-N-ethyl-2-Pyridinecarboxamide] | > 1 | – | – | – | – | –
CCN(CC(O)(CNC(=O)c1cnn(-c2ccc(F)cc2)c1N)C(F)(F)F)C(=O)c1ccccc1 (single isomer, unassigned) [Example 14 Enantiomer 1, 5-amino-N-(2-{[ethyl(phenylcar-bonyl)amino]methyl}-3,3,3-trifluoro-2-hydroxypropyl)-1-(4-fluorophenyl)-1H-pyrazole-4-carboxamide] | > 1 | – | – | – | – | < 1
